Data from US20070208087A1, “Compounds, compositions and methods for the treatment of inflammatory diseases” (priority 2001, published 2007).
Several values for one entry are separate records, joined by “and”; a condition that tells them apart may be missing. Identical values can stand only once. Like-named read-outs stand apart in the source and are kept apart here.

Columns and labels:
Assay type in all cases: cell-based
[1] = tested on: TNF-α release from microglia; assay: TNF-α release from LPS/IFNγ stimulated microglia, TNF-α ELISA (Example 11); conditions: 50 uM compound, TNF-α release, 10 ug LPS and 10 ng IFNγ, 24 hours; for % inhibition: individual replicates, 50 µM; for inhibition at 50 µM: Microglia, 24 h, read-out: Avg % Inhibition
Procedure: Also, bis- and tris-dihydroxyaryl compound's ability to inhibit NO release strongly supports their interference with the inflammatory cascade and utlimately inhibition of inflammation. Microglia cells were plated at 1×10^5 cells/ml into 96 well plates. At day three, they were treated with 50 μM bis- and tris-dihydroxyaryl compound for 1 hour and then exposed to 10 μg/ml LPS+10 ng/ml IFNγ for 24 hours. 10 μl of media was removed and stored at −80° until TNF-α ELISA assays were performed. Samples were diluted 1:50 before running the TNF-α ELISA (kit commercially available from Sigma).

[2] = tested on: microglia; assay: Ranking of NO release inhibition (Example 12); conditions: Microglia, ranking table
Source text: The bis- and tris-dihydroxyaryl compounds were ranked in order of effectiveness for the inhibition of NO release as set out in Table 8.

[3] = tested on: EOC 13.31 microglial cells; assay: NO release inhibition screen in LPS/IFNγ stimulated microglia, Griess reaction at 48 hours (Example 7); conditions: for μM NO release Avg / % inhibition / inhibition at 50 µM: 50 uM + 10 μg/ml LPS/10 ng/ml IFNγ, 48 hours; for % inhibition: 50 µM; for inhibition of NO release, in words: 50 uM, LPS/IFNγ stimulated microglia; for inhibition at 50 µM: Microglia, 48 h
Procedure: In this experiment, additional bis- and tris-dihydroxyaryl compounds were screened for their ability to inhibit nitric oxide release from microglial cells. Microglial cells stimulated with LPS/IFNγ release nitric oxide. […] This is a continuation of screening experiments. EOC 13.31 microglial cells were plated into 96 well plates. At 24 hours and at confluency, cells were treated with 10 μg/ml LPS/10 ng/ml IFNγ+50 uM bis- and tris-dihydroxyaryl compounds.

[4] = tested on: EOC 13.31 microglia cells; assay: Inhibition of NO release from microglia following 24 hours pretreatment (Example 10); conditions: for inhibition at 50 µM: Microglia
Procedure: This experiment was designed to determine if pretreatment for 24 hours with bis- and tris-dihydroxyaryl compounds changes NO inhibition previously observed with concurrent exposure of bis- and tris-dihydroxyaryl compounds. […] This study seeks to determine if pretreatment with bis- and tris-dihydroxyaryl compounds increases NO release inhibition. EOC 13.31 microglia cells were plated at 1×10^6 cells/ml in 96 well plates. After 48 hours, confluent cells were exposed to 50 μM compound (stock 10 mM in DMSO) prepared in fresh cell culture media. After 24 hours, 10 μg/ml LPS and 10 ng/ml IFNγ was added to wells directly without a media change. Cells were incubated for a further 48 hours and nitric oxide release was measured using the Griess Reaction.

[5] = single replicates, read-out: % inhibition
[6] = 50 μM pretreatment, read-out: inhibition of NO release following pretreatment
[7] = 50 uM pretreatment 24 hours, then LPS/IFNγ 48 hours, single replicates
[8] = 50 uM pretreatment 24 hours, then LPS/IFNγ 48 hours, read-out: Avg % Inhibition
[9] = 50 uM pretreatment 24 hours, then LPS/IFNγ 48 hours, single replicates, read-out: % inhibition

For `Oc1ccc(CN[C@@H]2CCCC[C@H]2NCc2ccc(O)c(O)c2)cc1O` (relative stereo) [Compound 12, N,N′-bis(3,4-dihydroxybenzyl)-trans-1,2-diaminocyclohexane], the “% inhibition” value [1] was 15.81% and 25.24% and 10.54%, the inhibition at 50 µM [1] was 17.2% and the inhibition at 50 µM [2] was 32%. The “μM NO release Avg” value [3] was 18.976 µM, the “% inhibition” value ([3]; single replicates) was 26.72% and 33.23% and the “inhibition of NO release, in words” value [3] was “effective inhibitors of NO release”. The inhibition at 50 µM ([3]; read-out: Avg. % Inhibition) was 31.6% and the inhibition at 50 µM [3, 5] was 34.9%.

`O=C(c1ccc(O)c(O)c1)C(O)c1ccc(O)c(O)c1` (stereo not drawn) [Compound 1, 3,4,3′,4′-tetrahydroxybenzoin] was tested, and the “% inhibition” value [1] was −16.55% and −17.04% and −18.19%, the inhibition at 50 µM [1] was -17.3% and the inhibition at 50 µM [2] was 18%. The “μM NO release Avg” value [3] was 22.038 µM, the “% inhibition” value ([3]; single replicates) was 20.29% and 18.62% and the inhibition at 50 µM ([3]; read-out: Avg. % Inhibition) was 18.4%. For the same molecule, the inhibition at 50 µM [3, 5] was 16.4%.

In the case of `Cc1nc(-c2ccc(O)c(O)c2)cc(-c2ccc(O)c(O)c2)c1C#N` [Compound 8, 4,6-bis(3,4-dihydroxyphenyl)-3-cyano-2-methylpyridine], the inhibition at 50 µM [2] is reported as 92%, the “μM NO release Avg” value [3] is reported as 25.265 µM and the “% inhibition” value ([3]; single replicates) is reported as 8.03% and 2.30% and 9.14%. It also gave an inhibition at 50 µM ([3]; read-out: Avg. % Inhibition) of 6.49%.

For `Oc1ccc(CN2CCN(Cc3ccc(O)c(O)c3)CC2)cc1O` [Compound 9, 1,4-bis(3,4-dihydroxybenzyl)piperazine], the inhibition at 50 µM [2] was 3%, the “μM NO release Avg” value [3] was 26.299 µM and the “% inhibition” value ([3]; single replicates) was −0.57% (2×) and 9.14%. For the same molecule, the inhibition at 50 µM ([3]; read-out: Avg. % Inhibition) was 2.66%.

In the case of `CN1C2CCC1C(Cc1ccc(O)c(O)c1)C(=O)C2Cc1ccc(O)c(O)c1` (stereo not drawn) [Compound 19, 2,4-bis(3,4-dihydroxybenzyl)-3-tropinone], the inhibition at 50 µM [2] is reported as 4%, the inhibition at 50 µM [4, 6] is reported as over 75% and the “μM NO release Avg” value [3] is reported as 25.828 µM. For the same molecule, the “% inhibition” value ([3]; single replicates) was 5.75% and 3.45%, the inhibition at 50 µM ([3]; read-out: Avg. % Inhibition) was 4.41% and the inhibition at 50 µM [3, 5] was 4.02%.

With `O=C(c1ccc(O)c(O)c1)N1CCN(C(=O)c2ccc(O)c(O)c2)CC1` [Compound 23, 1,4-bis(3,4-dihydroxybenzoyl)piperazine] the “% inhibition” value [1] was −23.78% and −15.89% and −17.96%, the inhibition at 50 µM [1] was -19.2% and the inhibition at 50 µM [2] was 13%. The “μM NO release Avg” value [3] was 23.394 µM, the “% inhibition” value ([3]; single replicates) was 13.60% and 9.70% and the inhibition at 50 µM ([3]; read-out: Avg. % Inhibition) was 13.4%. For the same molecule, the inhibition at 50 µM [3, 5] was 16.9%.

For `O=C(CCc1ccc(O)c(O)c1)Nc1ccc(O)c(O)c1` [Compound 57, 3-(3,4-dihydroxyphenyl)propionic acid 3,4-dihydroxyanilide], the “% inhibition” value [1] was −6.36% and −3.40% and −1.92%, the inhibition at 50 µM [1] was -3.89% and the inhibition at 50 µM [2] was 14%. The “μM NO release” value [4, 7] was 0.000 µM, the inhibition at 50 µM [4, 8] was 100% and the inhibition at 50 µM [4, 9] was 100%. For the same molecule, the inhibition at 50 µM [4, 6] was over 75%, the “μM NO release Avg” value [3] was 23.756 µM and the “% inhibition” value ([3]; single replicates) was 16.40% and 20.74% and 5.97%. For the same molecule, the inhibition at 50 µM ([3]; read-out: Avg. % Inhibition) was 14.4%.

With `O=C(CCc1ccc(O)c(O)c1)NCc1ccc(O)c(O)c1` [Compound 58, 3-(3,4-dihydroxyphenyl)propionic acid 3,4-dihydroxybenzylamide] the “% inhibition” value [1] was −13.26% and −11.95%, the inhibition at 50 µM [1] was -12.6% and the inhibition at 50 µM [2] was 4%. For the same molecule, the “% inhibition” value [4, 7] was 77.86% and 69.95%, the inhibition at 50 µM [4, 8] was 72.5% and the inhibition at 50 µM [4, 9] was 69.6%. The “μM NO release Avg” value [3] was 26.605 µM, the “% inhibition” value ([3]; single replicates) was 9.89% and 2.05% and 0.37% and the inhibition at 50 µM ([3]; read-out: Avg. % Inhibition) was 4.1%.

With `O=C(C=Cc1ccc(O)c(O)c1)NCc1ccc(O)c(O)c1` [Compound 61, 3,4-dihydroxycinnamic acid 3,4-dihydroxybenzylamide] the “% inhibition” value [1] was −3.40% and −17.04% and −7.51%, the inhibition at 50 µM [1] was -9.32% and the inhibition at 50 µM [2] was 21%. For the same molecule, the “μM NO release Avg” value [3] was 21.285 µM, the “% inhibition” value ([3]; single replicates) was 19.18% and 24.19% and the “inhibition of NO release, in words” value [3] was “effective inhibitors of NO release”. For the same molecule, the inhibition at 50 µM ([3]; read-out: Avg. % Inhibition) was 21.2% and the inhibition at 50 µM [3, 5] was 20.3%.

`O=C(Nc1ccc(O)c(O)c1)C(=O)Nc1ccc(O)c(O)c1` [Compound 63, oxalic acid bis(3,4-dihydroxyanilide)] was tested, and the “% inhibition” value [1] was −11.29% and −7.18% and −9.97%, the inhibition at 50 µM [1] was -9.48% and the inhibition at 50 µM [2] was 14%. For the same molecule, the “% inhibition” value [4, 7] was 81.97%, the inhibition at 50 µM [4, 8] was 82.1% and the inhibition at 50 µM [4, 9] was 82.3%. The inhibition at 50 µM [4, 6] was over 75%, the “μM NO release Avg” value [3] was 23.193 µM and the “% inhibition” value ([3]; single replicates) was 15.27%. It also gave an inhibition at 50 µM ([3]; read-out: Avg. % Inhibition) of 14.2% and an inhibition at 50 µM [3, 5] of 11.9%.

For `Oc1ccc(CN(Cc2ccc(O)c(O)c2)Cc2ccc(O)c(O)c2)cc1O` [Compound 75, tris(3,4-dihydroxybenzyl)amine], the “% inhibition” value [1] was 2.52% and −2.74% and 5.81%, the inhibition at 50 µM [1] was 1.86% and the inhibition at 50 µM [2] was 16%. The “% inhibition” value [4, 7] was 60.46% and 56.98%, the inhibition at 50 µM [4, 8] was 59.6% and the inhibition at 50 µM [4, 9] was 61.4%. The “μM NO release Avg” value [3] was 23.343 µM, the “% inhibition” value ([3]; single replicates) was 24.54% and 12.06% and 10.97% and the inhibition at 50 µM ([3]; read-out: Avg. % Inhibition) was 15.9%.

`O=C(Nc1ccc(O)c(O)c1)Nc1ccc(O)c(O)c1` [Compound 76, 1,3-bis(3,4-dihydroxyphenyl)urea] was tested, and the inhibition at 50 µM [2] was 14%, the “% inhibition” value [4, 7] was 75.64% and 78.81% and the inhibition at 50 µM [4, 8] was 76.3%. For the same molecule, the inhibition at 50 µM [4, 9] was 74.4%, the inhibition at 50 µM [4, 6] was over 75% and the “μM NO release Avg” value [3] was 23.745 µM. The “% inhibition” value ([3]; single replicates) was 11.52% and 12.60%, the inhibition at 50 µM ([3]; read-out: Avg. % Inhibition) was 14.4% and the inhibition at 50 µM [3, 5] was 19.1%.

For `O=C(NCc1ccc(O)c(O)c1)Nc1ccc(O)c(O)c1` [Compound 77, 1-(3,4-dihydroxyphenyl)-3-(3,4-dihydroxybenzyl)urea], the inhibition at 50 µM [2] was 12%, the “% inhibition” value [4, 7] was 99.39% and the inhibition at 50 µM [4, 8] was 96.8%. The inhibition at 50 µM [4, 9] was 91.8%, the inhibition at 50 µM [4, 6] was over 75% and the “μM NO release Avg” value [3] was 24.398 µM. For the same molecule, the “% inhibition” value ([3]; single replicates) was 9.89%, the inhibition at 50 µM ([3]; read-out: Avg. % Inhibition) was 12.1% and the inhibition at 50 µM [3, 5] was 14.2%.

In the case of `Oc1cc2ncc3cnc4cc(O)c(O)cc4c3c2cc1O` [Compound 85, dibenzo[c,f][2,7]napthyridine-2,3,10,11-tetraol], the “% inhibition” value [1] is reported as −14.41% and −19.01% and −16.88%, the inhibition at 50 µM [1] is reported as -16.8% and the inhibition at 50 µM [2] is reported as 16%. The “% inhibition” value [4, 7] was 97.27% and 94.23%, the inhibition at 50 µM [4, 8] was 94.9% and the inhibition at 50 µM [4, 9] was 93.3%. The inhibition at 50 µM [4, 6] was over 75%, the “μM NO release Avg” value [3] was 23.445 µM and the “% inhibition” value ([3]; single replicates) was 24.54% and 12.660% and 9.33%. It also gave an inhibition at 50 µM ([3]; read-out: Avg. % Inhibition) of 15.5%.
